# According to ChEMBL document CHEMBL2321853, “Novel acylethanolamide derivatives that modulate body weight through enhancement of hypothalamic pro-opiomelanocortin (POMC) and/or decreased neuropeptide Y (NPY)” (J Med Chem, 2013):
# Activity calls are given as the source filed them. The calls are words filed in the database; no cut-off is given here.
# Legend:
# Mus musculus [1] = experiment: Antiobesity activity in Sabra mouse assessed as reduction in body weight at 1 mg/kg, ip administered on day 0, 10, 11, 12, 24, 29 measured on day 39 relative to control; type: functional; design: scale not given: the % may be the effect or the level left; details: route intraperitoneal
# Mus musculus [2] = experiment: Antiobesity activity in Sabra mouse assessed as reduction in body weight at 1 mg/kg, ip administered on day 0, 10, 11, 12, 24, 29 measured on day 29 relative to control; type: functional; design: scale not given: the % may be the effect or the level left; details: route intraperitoneal
# Mus musculus [3] = experiment: Antiobesity activity in Sabra mouse assessed as reduction in body weight at 1 mg/kg, ip administered on day 0, 10, 11, 12, 24, 29 measured on day 22 relative to control; type: functional; design: scale not given: the % may be the effect or the level left; details: route intraperitoneal
# Mus musculus [4] = experiment: Antiobesity activity in C57BL/6 mouse assessed as change in AST level at 5 mg/kg, ip measured on day 36 (reference value: 146.7 IU/L); type: functional; details: route intraperitoneal
# Mus musculus [5] = experiment: Antiobesity activity in C57BL/6 mouse assessed as change in glucose level in blood at 5 mg/kg, ip administered on day 1, 4, 5, 7, 17, 15, 19 measured on day 15 relative to control; type: functional; details: route intraperitoneal
# Mus musculus [6] = experiment: Antiobesity activity in C57BL/6 mouse assessed as change in glucose level in blood at 5 mg/kg, ip administered on day 1, 4, 5, 7, 17, 15, 19 measured on day 5 relative to control; type: functional; details: route intraperitoneal
# Mus musculus [7] = experiment: Antiobesity activity in C57BL/6 mouse assessed as change in glucose level in blood at 5 mg/kg, ip administered on day 1, 4, 5, 7, 17, 15, 19 measured on day 3 relative to control; type: functional; details: route intraperitoneal
# Mus musculus [8] = experiment: Antiobesity activity in C57BL/6 mouse assessed as weight loss at 5 mg/kg, ip administered on day 1, 4, 5, 7, 17, 15, 19 measured on day 19 relative to control; type: functional; details: route intraperitoneal
# Mus musculus [9] = experiment: Antiobesity activity in C57BL/6 mouse assessed as weight loss at 5 mg/kg, ip administered on day 1, 4, 5, 7, 17, 15, 19 measured on day 9 relative to control; type: functional; details: route intraperitoneal
# Mus musculus [10] = experiment: Antiobesity activity in C57BL/6 mouse assessed as weight loss at 5 mg/kg, ip administered on day 1, 4, 5, 7, 17, 15, 19 measured on day 3 relative to control; type: functional; details: route intraperitoneal
# Mus musculus [11] = experiment: Enhancement of cognitive function in Sabra mouse at 1 mg/kg, ip administered on day 8, 12 and 43 by eight-arm maze test; type: functional, organism-based; design: dose 1 mg/kg
# Mus musculus [12] = experiment: Antiobesity activity in Sabra mouse assessed as change in body weight at 1 mg/kg, ip administered on day 8, 12 and 43 measured on day 71 relative to control; type: functional; details: route intraperitoneal
# Mus musculus [13] = experiment: Antiobesity activity in Sabra mouse assessed as change in body weight at 1 mg/kg, ip administered on day 8, 12 and 43 measured on day 29 relative to control; type: functional; details: route intraperitoneal
# Mus musculus [14] = experiment: Antiobesity activity in Sabra mouse assessed as change in body weight at 1 mg/kg, ip administered on day 8, 12 and 43 measured on day 8 relative to control; type: functional; details: route intraperitoneal
# Mus musculus [15] = experiment: Hepatotoxicity in Sabra mouse assessed as inflammatory changes at 1 mg/kg, ip administered on day 8, 9, 10, 11, 14, 18, 24 and 32 by hematoxylin and eosin staining-based histopathological analysis; type: toxicity, organism-based; design: dose 1 mg/kg, route intraperitoneal; details: in vivo
# Mus musculus [16] = experiment: Enhancement of cognitive function C57BL/6 mouse assessed as reduction food consumption at 1 mg/kg, ip administered on day 3, 6, 8, 9, 10 measured on day 10; type: functional, organism-based; design: dose 1 mg/kg
# Mus musculus [17] = experiment: Enhancement of motor activity in Sabra mouse at 1 mg/kg, ip administered on day 6 to 10 by open field test relative to control; type: functional; details: route intraperitoneal
# Hypothalamus = experiment: Effect on CART gene expression in Sabra mouse hypothalamus assessed as change in mRNA level at 1 mg/kg, ip administered on day 8, 9, 10, 11, 14, 18, 24 and 32 by RT-PCR analysis relative to GAPDH; type: functional; details: route intraperitoneal
# [18] = target: T1, Fatty-acid amide hydrolase 1 (Rattus norvegicus) (UniProt P97612); experiment: Inhibition of rat brain FAAH using [3H]anandamide as substrate at 10 uM preincubated for 15 mins before substrate addition relative to control
# T1 sequence (whole entry): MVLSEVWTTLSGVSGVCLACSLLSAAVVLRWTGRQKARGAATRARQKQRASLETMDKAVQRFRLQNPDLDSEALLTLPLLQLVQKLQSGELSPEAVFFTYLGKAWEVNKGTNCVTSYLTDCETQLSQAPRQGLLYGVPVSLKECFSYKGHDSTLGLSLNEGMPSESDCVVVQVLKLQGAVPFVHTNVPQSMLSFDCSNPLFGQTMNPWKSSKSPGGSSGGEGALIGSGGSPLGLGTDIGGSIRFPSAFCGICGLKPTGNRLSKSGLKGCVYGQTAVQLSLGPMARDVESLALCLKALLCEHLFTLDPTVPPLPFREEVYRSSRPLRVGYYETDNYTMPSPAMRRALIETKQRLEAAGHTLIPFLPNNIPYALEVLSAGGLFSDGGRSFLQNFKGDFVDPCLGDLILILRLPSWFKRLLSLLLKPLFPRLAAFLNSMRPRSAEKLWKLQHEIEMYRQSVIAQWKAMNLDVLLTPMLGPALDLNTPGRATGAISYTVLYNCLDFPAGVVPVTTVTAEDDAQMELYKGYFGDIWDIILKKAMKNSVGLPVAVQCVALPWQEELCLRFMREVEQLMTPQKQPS
# Mus musculus [19] = experiment: Antiobesity activity in high fat diet fed C57BL/6 mouse assessed as reduction food consumption at 1 mg/kg, ip administered on day 3, 6, 8, 9, 10 measured after week 2 relative to control; type: functional; design: scale not given: the % may be the effect or the level left; details: route intraperitoneal
# Mus musculus [20] = experiment: Antiobesity activity in high fat diet fed C57BL/6 mouse assessed as reduction in body weight at 1 mg/kg, ip administered on day 3, 6, 8, 9, 10 measured on day 7 relative to control; type: functional; design: scale not given: the % may be the effect or the level left; details: route intraperitoneal
# Mus musculus [21] = experiment: Antiobesity activity in Sabra mouse assessed as reduction in body weight at 10 mg/kg, administered for 6 to 51 days via oral gavage measured on day 52 relative to control; type: functional, organism-based; design: dose 10 mg/kg
# Mus musculus [22] = experiment: Antiobesity activity in Sabra mouse assessed as change in food consumption at 1 mg/kg, ip administered on day 8, 9, 10, 11, 14, 18, 24 and 32 measured after 6 weeks relative to control; type: functional; details: route intraperitoneal
# Mus musculus [23] = experiment: Antiobesity activity in Sabra mouse assessed as change in food consumption at 1 mg/kg, ip administered on day 8, 9, 10, 11, 14, 18, 24 and 32 measured after 3 weeks relative to control; type: functional; details: route intraperitoneal
# Mus musculus [24] = experiment: Antiobesity activity in Sabra mouse assessed as change in body weight at 1 mg/kg, ip administered on day 8, 9, 10, 11, 14, 18, 24 and 32 measured on day 39 relative to control; type: functional; details: route intraperitoneal
# Mus musculus [25] = experiment: Antiobesity activity in Sabra mouse assessed as change in body weight at 1 mg/kg, ip administered on day 8, 9, 10, 11, 14, 18, 24 and 32 measured on day 9 relative to control; type: functional; details: route intraperitoneal
# Mus musculus [26] = experiment: Antiobesity activity in Sabra mouse assessed as change in food consumption at 1 mg/kg, ip administered on day 8, 9, 10, 11, 14, 18, 24 and 32 measured after 2 weeks relative to control; type: functional; details: route intraperitoneal
compound,measurement,setting,value
CCCCCCCC/C=C\CCCCCCCC(=O)N[C@H](CO)C(C)C,Activity,Mus musculus [1],-7.31%
same,Activity,Mus musculus [2],-5.98%
same,Activity,Mus musculus [3],-3.06%
same,Activity,Mus musculus [4],126 IU/L
same,Activity,Mus musculus [5],-16.3%
same,Activity,Mus musculus [6],-5.7%
same,Activity,Mus musculus [7],-2.7%
same,Activity,Mus musculus [8],2.1%
same,Activity,Mus musculus [9],-3%
same,Activity,Mus musculus [10],-2.6%
same,Activity,Mus musculus [11],Active
same,Activity,Mus musculus [12],-11.4%
same,Activity,Mus musculus [13],-4.9%
same,Activity,Mus musculus [14],0.7%
same,Activity,Mus musculus [15],Non-toxic
same,Activity,Mus musculus [16],Active
same,Activity,Mus musculus [17],20%
same,Activity,Hypothalamus,15%
same,inhibition,[18],14%
same,Activity,Mus musculus [19],45%
same,Activity,Mus musculus [20],-3.2%
same,Activity,Mus musculus [21],Active
same,Activity,Mus musculus [22],83.6%
same,Activity,Mus musculus [23],91.2%
same,Activity,Mus musculus [24],-6.4%
same,Activity,Mus musculus [25],-2.2%
same,Activity,Mus musculus [26],93.8%
